Structures can show the parent of a compound that is named as a salt.

Test [1] concerns the target T1, human GPR14 (Homo sapiens, UniProt Q9UKP6).
T1 construct: expressed in transfected cells; host or cells: CHO dhfr- cells stably transfected with pcDNA3.1-hGPR14 (CHO/hGPR14)
T1 sequence (Q9UKP6 1-389): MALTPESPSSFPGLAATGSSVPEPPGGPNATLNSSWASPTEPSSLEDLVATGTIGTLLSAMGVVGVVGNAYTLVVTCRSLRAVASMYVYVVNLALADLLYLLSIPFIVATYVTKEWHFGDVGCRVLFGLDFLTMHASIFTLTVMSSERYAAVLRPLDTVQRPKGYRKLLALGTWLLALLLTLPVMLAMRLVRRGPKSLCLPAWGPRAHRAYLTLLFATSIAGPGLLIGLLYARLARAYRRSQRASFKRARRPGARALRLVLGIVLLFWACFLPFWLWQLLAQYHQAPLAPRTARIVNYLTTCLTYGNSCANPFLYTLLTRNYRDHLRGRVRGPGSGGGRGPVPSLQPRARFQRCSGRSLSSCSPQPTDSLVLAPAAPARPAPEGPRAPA
The experiment in a line: Inhibition of binding of [125I]-labeled human urotensin II to human GPR14-expressing CHO cell membrane fraction. The conditions noted are these: 25° C., 3 hours, read-out: Inhibitory concentration (concentration showing 50% inhibition of human GPR14 binding activity). The protocol: To 1×10^8 CHO/GPR14 cells were added 10 ml of homogenate buffer (10 mM NaHCO3, 5 mM EDTA, 0.5 mM PMSF, 1 μg/ml pepstatin, 4 μg/ml E64, 20 μg/ml leupeptin), and disrupted using Polytron (12,000 rpm, 1 minute). Cell debris solution was centrifuged at 1,000 g for 15 minutes to obtain a supernatant. The supernatant was then […] (in Beckman type 30 rotor, 30,000 rpm, 1 hour), and the resultant precipitant was collected as human GPR14-expressing CHO cell fraction.
Isotope-labeled human urotensin II to be used in experiments for testing inhibition of binding was prepared as described below. 5 μg of human urotensin II (available from Peptide Institute, Inc.) was dissolved in 25 μl of 0.4 M sodium acetate (pH 5.6). […]
Human GPR14-expressing CHO cell fraction was diluted in a membrane diluting buffer (20 mM phosphate buffer (pH 7.3), 150 mM NaCl, 5 mM MgCl2, 0.1% BSA, 0.05% CHAPS, 0.5 mM PMSF, 0.1 μg/ml Pepstatin, 20 μg/ml Leupeptin, 4 μg/ml E-64) to prepare a solution of cell membrane fraction (protein concentration: 3 μg/ml) for assay. […] Next, the filter was washed three times with membrane diluting buffer (0.2 ml), added with 20 μl of Microscinti 20 (Packard), and determined for radioactivity in Topcount (Packard). Specific-binding is calculated by subtracting non-specific binding from the total binding. […]

The target in test [2] is T2, GPR14-expressing CHO cells (Homo sapiens, UniProt Q9UKP6).
T2 construct: expressed in transfected cells; host or cells: CHO dhfr- cells stably transfected with pcDNA3.1-hGPR14 (CHO/hGPR14)
T2 sequence (Q9UKP6 1-389): T1 sequence (Q9UKP6 1-389)
The experiment in a line: Change in intracellular calcium concentration in human GPR14-expressing CHO cells (FLIPR, urotensin II-induced). To be noted: antagonist activity assay, 10 nM urotensin II added. Format: cell-based. The protocol: GPR14-expressing CHO cells were inoculated on a 96-well plate at 1×10^4 cell/well, cultured for 48 hours, and then washed with 0.1 ml of HBSS containing 20 mM HEPES(pH 7.4), 1% FCS and 1% penicillin-streptomycin (hereinafter referred to as “wash buffer”). Next, 100 μl of another wash buffer containing 4 μM Fluo3, 0.04% pluronic acid and 2.5 mM probenicid (hereinafter referred to as “reaction buffer”) was added thereto for reaction at 37° C. for 1 hour. The reaction buffer was then removed and the plate was washed three times with 0.2 ml of wash buffer. Then, 90 μl of wash buffer and 10 μl of a solution of test compound in dimethylsulfoxide diluted 10 times (by volume) in membrane diluting buffer were added for agonist activity assay, while, for antagonist activity assay, furthermore 10 μl of 10 nM urotensin II was additionally added to determine change in intracellular calcium concentration in FLIPR (Japan Molecular Device).
On the technique in general: A change in cytosolic calcium serves as a functional read-out for many receptors and channels.

Test [3] deals with T3, human somatostatin receptor protein subtype 5 (SSTR5) (Homo sapiens, UniProt P35346).
T3 construct: expressed in transfected cells; host or cells: CHO (dhfr-) cells transfected with pA-1-11-SSTR5; clone SSTR5-32-4
T3 sequence (P35346 whole entry): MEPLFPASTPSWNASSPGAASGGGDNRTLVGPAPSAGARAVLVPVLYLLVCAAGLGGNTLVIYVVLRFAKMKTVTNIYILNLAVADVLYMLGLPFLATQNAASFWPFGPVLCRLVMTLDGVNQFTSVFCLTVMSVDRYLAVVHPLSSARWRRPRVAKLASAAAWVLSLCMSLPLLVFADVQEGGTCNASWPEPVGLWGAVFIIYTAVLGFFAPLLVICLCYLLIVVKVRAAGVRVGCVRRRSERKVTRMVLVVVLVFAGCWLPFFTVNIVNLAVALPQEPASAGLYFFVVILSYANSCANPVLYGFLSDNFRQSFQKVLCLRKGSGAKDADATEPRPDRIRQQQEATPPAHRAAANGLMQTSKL
The test is described as follows: Inhibition of binding of [125I]-somatostatin to SSTR5-expressing CHO cell membrane fraction. To be noted: 25° C., 60 minutes, Hill plots, read-out: IC50 (concentration at which 50% binding of [125I]-somatostatin was inhibited). The procedure: (3) —(CH2)h1—X^1—(CH2)h2—X^2—(CH2)h3— (h1, h2 and h3 are the same or different integers 0 to 10 provided that the sum of h1, h2 and h3 is 0 to 10, and X^1 and X^2 independently represent NH, O, S, SO or SO2 provided that, when h2 is 0, at least one of X^1 and X^2 is preferably NH); etc., and these divalent groups wherein some bonds have been converted into unsaturated bonds. […]
The SSTR5-expressing CHO cell membrane fraction prepared in Example 5 was diluted with the assay buffer to prepare a solution at a concentration of 3 •g/ml and pipetted into tubes (173 •l/tube). […] After filtration, the radioactivity of [^125I]-somatostatin remaining on the glass filer was measured with a • counter.
The degree of inhibition of binding (%) by each test substance was determined according to the following equation: The degree of inhibition of binding (%)=(radioactivity when the compound was added−radioactivity when DMSO solution was added)/(radioactivity when somatostatin was added−radioactivity when DMSO solution was added)×100. […]

In the case of `NS(=O)(=O)c1ccc(CCN(Cc2cccc(-c3cccc(C(=O)NCCN4CCCC4)c3)c2)C(=O)CCCc2ccccc2)cc1` [Example 4, 3′-{({2-[4-(Aminosulfonyl)phenyl]ethyl}[4-phenylbutanoyl]amino)methyl}-N-[2-(1-pyrrolidinyl)ethyl][1,1′-biphenyl]-3-carboxamide hydrochloride], the IC50 in test [1] stood at 10 nM. As to `NS(=O)(=O)c1ccc(CCN(Cc2cccc(-c3cccc(C(=O)NCCN4CCCC4)c3)c2)C(=O)COCc2ccccc2)cc1` [Example 6, 3′-{({2-[4-(Aminosulfonyl)phenyl]ethyl}[(benzyloxy)acetyl]amino)methyl}-N-[2-(1-pyrrolidinyl)ethyl][1,1′-biphenyl]-3-carboxamide hydrochloride], in test [1], the IC50 worked out at 13 nM. As to `NCCNC(=O)c1cccc(-c2cccc(CN(CCc3ccc(S(N)(=O)=O)cc3)C(=O)/C=C/c3ccccc3)c2)c1.O=C(O)C(F)(F)F` [Example 71, N-(2-Aminoethyl)-3′-({[4-(aminosulfonyl)phenethyl][(E)-3-phenyl-2-propenoyl]amino}methyl)[1,1′-biphenyl]-3-carboxamide trifluoroacetate], the “Inhibition of urotensin II-induced increase in intracellular calcium concentration” value in test [2] was “inhibited urotensin II-induced increase in intracellular calcium concentration”.

In the case of `N=C(N)NCc1cccc(C(=O)N(Cc2cccc(-c3ccccc3C(=O)NCCN)c2)Cc2cccc3ccccc23)c1` [Example 325, N-(2-Aminoethyl)-3′-{[[3-({[amino(imino)methyl]amino}methyl)benzoyl](1-naphthylmethyl)amino]methyl}-1,1′-biphenyl-2-carboxamide trifluoroacetate], in test [3], the IC50 came to 6 nM. In the case of `NCCNC(=O)c1ccccc1-c1cccc(CN(Cc2cccc3ccccc23)C(=O)c2ccc(S(N)(=O)=O)cc2)c1` [Example 328, N-(2-Aminoethyl)-3′-{[[4-(aminosulfonyl)benzoyl](1-naphthylmethyl)amino]methyl}-1,1′-biphenyl-2-carboxamide trifluoroacetate], the IC50 in test [3] worked out at 3 nM.
